Literature values, collected in patent publication US12466814B2, “Sterically shielded heptamethine cyanine dyes” (UNIVERSITY OF NOTRE DAME DU LAC, priority 2020, dated 2025).

Columns and labels:
[1] = PBS pH 7.4, cited from earlier work; for ε: reported data; for λabs max / λem max: spectral data from reference
[2] = cited from earlier work; for QY / Brightness (fluorescence brightness = ε × QY): PBS pH 7.4; for QY: data from reference; for Brightness (fluorescence brightness = ε × QY) / Quantum yield: reported data; for Quantum yield: pH 7.4 PBS
[3] = known from literature; cited from earlier work
[4] = meso linkage is not cleaved by biological amines or thiols; cited from earlier work

For `CC1(C)C(/C=C/C2=C(Oc3ccc(S(=O)(=O)O)cc3)C(=C/C=C3/N(CCCCS(=O)(=O)O)c4ccc(S(=O)(=O)[O-])cc4C3(C)C)/CCC2)=[N+](CCCCCC(=O)O)c2ccc(S(=O)(=O)O)cc21` [CW800], which ε [1] is on record?
Its ε is 242,000 M^−1cm^−1.

And the λabs max [1]?
The λabs max was 775 nm.

And the λem max [1]?
Its λem max is 796 nm.

What about the QY [2] of the same compound?
The QY was 0.090.

What about the “Brightness (fluorescence brightness = ε × QY)” value [2] of the same compound?
The value was 22,000.

And the Quantum yield [2]?
The Quantum yield was 9.0%.

And the “Change in serum under very similar conditions” value [3]?
Its value is “degradation”.

What about the Stable to nucleophiles [4] of the same compound?
The Stable to nucleophiles was “No”.

With `CC1(C)C(/C=C/C2=C(Oc3ccc(CCC(=O)O)cc3)C(=C/C=C3/N(CCC[N+](C)(C)C)c4ccc(S(=O)(=O)O)cc4C3(C)C)/CCC2)=[N+](CCC[N+](C)(C)C)c2ccc(S(=O)(=O)O)cc21` [ZW800-1] as the compound, how does the ε [1] read?
The ε was 246,000 M^−1cm^−1.

And the λabs max [1]?
Its λabs max is 770 nm.

And the λem max [1]?
The λem max was 788 nm.

And the QY [2]?
Its QY is 0.135.

And the “Brightness (fluorescence brightness = ε × QY)” value [2]?
The value was 33,000.

And the Quantum yield [2]?
The Quantum yield was 13.5%.

What about the “Change in serum under very similar conditions” value [3] of the same compound?
The value was “degradation”.

What about the Stable to nucleophiles [4] of the same compound?
Its Stable to nucleophiles is “No”.
